As a reminder, the Km is the substrate concentration at which the rate is half of its maximum.

Data on one molecule can be found in paper PMC5919439, “Isolation and molecular characterization of novel glucarpidases: Enzymes to improve the antibody directed enzyme pro-drug therapy for cancer treatment” (PLoS ONE, 2018).

The experiment deals with Ps CPG2 (Pseudomonas sp. RS-16, UniProt P06621). Briefly: decrease in absorbance at […] nm, plate reader, initial rates. Format: biochemical. As to conditions: 0.1 M Tris-HCl pH 7.3, 0.2 mM ZnSO4, 37°C, 0.03-0.42 mM MTX; apparent Km.
Ps CPG2, sequence (P06621 23-415): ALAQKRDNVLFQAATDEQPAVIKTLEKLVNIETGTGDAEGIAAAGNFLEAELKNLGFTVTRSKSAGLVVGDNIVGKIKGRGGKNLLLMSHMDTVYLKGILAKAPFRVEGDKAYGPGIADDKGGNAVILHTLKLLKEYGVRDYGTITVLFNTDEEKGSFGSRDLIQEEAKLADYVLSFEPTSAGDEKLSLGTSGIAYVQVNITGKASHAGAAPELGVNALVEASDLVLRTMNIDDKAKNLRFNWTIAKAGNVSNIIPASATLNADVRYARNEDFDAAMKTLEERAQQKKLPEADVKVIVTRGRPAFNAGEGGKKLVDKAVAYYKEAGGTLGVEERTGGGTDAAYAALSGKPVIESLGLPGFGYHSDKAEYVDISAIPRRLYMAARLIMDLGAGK

Consider `CN(Cc1cnc2nc(N)nc(N)c2n1)c1ccc(C(=O)N[C@@H](CCC(=O)O)C(=O)O)cc1` [methotrexate], for which the Km amounted to 172 µM.
